From US8071290B2, “Hypermethylation of GATA-4 and GATA-5 transcription factor genes in cancer” (Johns Hopkins University School of Medicine, priority 2003, dated 2011)
Marks after values point to notes of the source that are not given here.

Key:
Format in all cases: cell-based, human
[1] = tested on: Gastric cancer cells, AZ521; test: TSA alone or low dose DAC plus TSA, RT-PCR of GATA-4 and GATA-5
Method: (§1) The CRC and Az521 cell lines were grown in DMEM, MEM or McCoy's medium supplemented with 10% fetal bovine serum, penicillin and streptomycin. For demethylation studies, cells were treated daily with […] 5-aza-2′deoxycytidine (DAC; Sigma Chemical Co.; St. Louis Mo.) for 48 hr (41). Az521 and HCT116 cells also were treated with the histone deacetylase inhibitor, TSA (Wako), alone, or with a combination of DAC plus TSA (41; 6). Total RNA was isolated using the TRIZOL reagent (Invitrogen Corp.; Carlsbad Calif.).
For RT-PCR, 2 μg of total RNA was reverse transcribed using the SUPERSCRIPT reverse transcription kit (Invitrogen); all genes were amplified with multiple cycle numbers (28-35 cycles) for obtaining semi-quantitative differences in their expression levels. Primer pairs for GATA-1 to GATA-6 and for the GATA-5 target genes are shown in Table 2 (see, also, Bai et al., Mol. Carcinog. 28:184-188, 2000, which is incorporated herein by reference). Annealing was performed at the indicated temperatures, and PCR was performed for the indicated number of cycles (Table 2, below). […]
GATA-4, GATA-5and GATA-6 expression was examined in gastrointestinal cancer cell lines. […] PCR products recognizing unmethylated and methylated CpG sites were analyzed in 2.5% agarose gels stained by ethidium bromide.

[2] = tested on: RKO colon cancer cell line; test: DAC treatment, gene expression by RT-PCR in RKO; set-up: key to GATA-5 expression (Exp, A = DAC treatment) / GATA-6 expression (Exp, A = DAC treatment) / TFF1 expression (Exp, A = DAC treatment) / TFF2 expression (Exp, A = DAC treatment) / TFF3 expression (Exp, A = DAC treatment) / Inhibin α expression (Exp, A = DAC treatment) / Dab2 expression (Exp, A = DAC treatment) / GATA-4 expression (Exp, A = DAC treatment): −: Undetectable level; +: detectable level of expression, by RT-PCR; ++: increased expression level from +basal level
Method: as §1
(§2) For RT-PCR, 2 μg of total RNA was reverse transcribed using the SUPERSCRIPT reverse transcription kit (Invitrogen); all genes were amplified with multiple cycle numbers (28-35 cycles) for obtaining semi-quantitative differences in their expression levels. Primer pairs for GATA-1 to GATA-6 and for the GATA-5 target genes are shown in Table 2 (see, also, Bai et al., Mol. Carcinog. 28:184-188, 2000, which is incorporated herein by reference). Annealing was performed at the indicated temperatures, and PCR was performed for the indicated number of cycles (Table 2, below). PCR conditions were as follows: first denature, 95° C., 5 min; denature, 95° C., 1 min; anneal, temperature shown in Table 2 (° C.), 1 min; extension, 72° C., 1 min; final extension, 72° C., 10 min.
(§3) GATA-4, GATA-5and GATA-6 expression was examined in gastrointestinal cancer cell lines. GATA-4, GATA-5 and GATA-6 expression levels were examined by RT-PCR in seven cancer cell lines (colon cancer cell lines RKO, DLD1, HCT116, HT29, LoVo, and SW480; and gastric cancer cell line AZ521) with or without (mock) treatment with 5′-aza-2′-deoxycytidine (DAC) and in normal colonic mucosa (NC) and peripheral blood lymphocytes (PBL). GAPDH expression was used for an internal loading control for the RT-PCR. Gastric cancer cells, AZ521, were treated with low dose DAC alone, TSA alone, or a combination of these two drugs (A/T), or were mock treated, and examined by RT-PCR. GATA-4 and GATA-5 expression were examined in wild type (WT) HCT116 colon cancer cells, and two clones each of these cells in which both alleles of DNA methyltransferase 1 (DNMTI-KO), DNMT 3b (DNMT3b-KO), or both DNMTs were knocked out (21). PCR products recognizing unmethylated and methylated CpG sites were analyzed in 2.5% agarose gels stained by ethidium bromide.

[3] = tested on: DLD1 colon cancer cell line; test: DAC treatment, gene expression by RT-PCR in DLD1; set-up: key: −: Undetectable level; +: detectable level of expression, by RT-PCR; ++: increased expression level from +basal level; conditions: 5 pM DAC daily for 48 hr
Method: as §1, §2, §3

[4] = tested on: HCT116 colon cancer cell line; test: DAC treatment, gene expression by RT-PCR in HCT116; set-up: key to GATA-5 expression (Exp, A = DAC treatment) / GATA-6 expression (Exp, A = DAC treatment) / TFF1 expression (Exp, A = DAC treatment) / TFF2 expression (Exp, A = DAC treatment) / TFF3 expression (Exp, A = DAC treatment) / Inhibin α expression (Exp, A = DAC treatment) / Dab2 expression (Exp, A = DAC treatment) / GATA-4 expression (Exp, A = DAC treatment): −: Undetectable level; +: detectable level of expression, by RT-PCR; ++: increased expression level from +basal level
Method: as §1, §2, §3

[5] = tested on: HT29 colon cancer cell line; test: DAC treatment, gene expression by RT-PCR in HT29; set-up: key: −: Undetectable level; +: detectable level of expression, by RT-PCR; ++: increased expression level from +basal level; conditions: 5 pM DAC daily for 48 hr
Method: as §1, §2, §3

[6] = tested on: LoVo colon cancer cell line; test: DAC treatment, gene expression by RT-PCR in LoVo; set-up: key: −: Undetectable level; +: detectable level of expression, by RT-PCR; ++: increased expression level from +basal level; conditions: 5 pM DAC daily for 48 hr
Method: as §1, §2, §3

[7] = tested on: SW480 colon cancer cell line; test: DAC treatment, gene expression by RT-PCR in SW480; set-up: key: −: Undetectable level; +: detectable level of expression, by RT-PCR; ++: increased expression level from +basal level; conditions: 5 pM DAC daily for 48 hr
Method: as §1, §2, §3

[8] = tested on: AZ521 gastric cancer cell line; test: DAC treatment, gene expression by RT-PCR in AZ521; set-up: key to GATA-4 expression (Exp, A = DAC treatment) / GATA-5 expression (Exp, A = DAC treatment) / GATA-6 expression (Exp, A = DAC treatment) / TFF1 expression (Exp, A = DAC treatment) / TFF2 expression (Exp, A = DAC treatment) / TFF3 expression (Exp, A = DAC treatment) / Inhibin α expression (Exp, A = DAC treatment) / Dab2 expression (Exp, A = DAC treatment): −: Undetectable level; +: detectable level of expression, by RT-PCR; ++: increased expression level from +basal level
Method: as §1, §2, §3

[9] = tested on: colon cancer cell lines RKO, DLD1, HCT116, HT29, LoVo, and SW480; and gastric cancer cell line AZ521; test: DAC treatment of the seven cancer cell lines, RT-PCR
Method: as §1, §2
as §3, with “GATA-4 and GATA-5 expression were examined in wild type (WT) HCT116 colon cancer cells, and two clones each of these cells in which both alleles of DNA methyltransferase 1 (DNMTI-KO), DNMT 3b (DNMT3b-KO), or both DNMTs were knocked out (21).” left out

[10] = 5 pM DAC daily for 48 hr, RT-PCR
[11] = HCT116, 5 pM DAC daily for 48 hr, RT-PCR
[12] = AZ521, 5 pM DAC daily for 48 hr, RT-PCR

CC(/C=C/C(=O)NO)=C\[C@@H](C)C(=O)c1ccc(N(C)C)cc1 [TSA]
synergistic: reactivating expression of the silenced GATA-4 and GATA-5 genes ([1]; TSA applied with a low dose of DAC)
failed to reactivate: reactivation of the silenced GATA-4 and GATA-5 genes ([1]; TSA alone)

Nc1ncn([C@H]2C[C@H](O)[C@@H](CO)O2)c(=O)n1 [DAC, 5-aza-2′-deoxycytidine]
did not re-express: TFF2 re-expression after DAC treatment [2] | TFF2 re-expression after DAC treatment ([8]; Az521)
re-expressed: re-expression of each basally silent GATA gene, except GATA-1 ([9]; DAC treatment, RT-PCR)
+: Dab2 expression (Exp, A = DAC treatment) [2, 10] | GATA-4 expression (Exp, A = DAC treatment) [2, 10] | GATA-5 expression (Exp, A = DAC treatment) [2, 10] | GATA-6 expression (Exp, A = DAC treatment) [2, 10] | Inhibin α expression (Exp, A = DAC treatment) [2, 10] | TFF1 expression (Exp, A = DAC treatment) [2, 10] | TFF3 expression (Exp, A = DAC treatment) [2, 10] | Dab2 expression (Exp, A = DAC treatment) [3] | GATA-4 expression (Exp, A = DAC treatment) [3] | GATA-5 expression (Exp, A = DAC treatment) [3] | GATA-6 expression (Exp, A = DAC treatment) [3] | Inhibin α expression (Exp, A = DAC treatment) [3] | TFF2 expression (Exp, A = DAC treatment) [3] | TFF3 expression (Exp, A = DAC treatment) [3] | Dab2 expression (Exp, A = DAC treatment) [4, 11] | GATA-4 expression (Exp, A = DAC treatment) [4, 11] | GATA-5 expression (Exp, A = DAC treatment) [4, 11] | GATA-6 expression (Exp, A = DAC treatment) [4, 11] | Inhibin α expression (Exp, A = DAC treatment) [4, 11] | TFF1 expression (Exp, A = DAC treatment) [4, 11] | TFF2 expression (Exp, A = DAC treatment) [4, 11] | TFF3 expression (Exp, A = DAC treatment) [4, 11] | Dab2 expression (Exp, A = DAC treatment) [5] | GATA-4 expression (Exp, A = DAC treatment) [5] | GATA-5 expression (Exp, A = DAC treatment) [5] | GATA-6 expression (Exp, A = DAC treatment) [5] | TFF2 expression (Exp, A = DAC treatment) [5] | TFF3 expression (Exp, A = DAC treatment) [5] | Dab2 expression (Exp, A = DAC treatment) [6] | GATA-6 expression (Exp, A = DAC treatment) [6] | TFF2 expression (Exp, A = DAC treatment) [6] | Dab2 expression (Exp, A = DAC treatment) [7] | GATA-4 expression (Exp, A = DAC treatment) [7] | GATA-5 expression (Exp, A = DAC treatment) [7] | GATA-6 expression (Exp, A = DAC treatment) [7] | TFF1 expression (Exp, A = DAC treatment) [7] | TFF2 expression (Exp, A = DAC treatment) [7] | TFF3 expression (Exp, A = DAC treatment) [7] | Dab2 expression (Exp, A = DAC treatment) [8, 12] | GATA-4 expression (Exp, A = DAC treatment) [8, 12] | GATA-5 expression (Exp, A = DAC treatment) [8, 12] | GATA-6 expression (Exp, A = DAC treatment) [8, 12] | TFF1 expression (Exp, A = DAC treatment) [8, 12] | TFF3 expression (Exp, A = DAC treatment) [8, 12]
reactivated: Dab2 reactivation following DAC treatment ([2]; gene basally silent)
−: TFF2 expression (Exp, A = DAC treatment) [2, 10] | TFF2 expression (Exp, A = DAC treatment) [8, 12]
++^4): GATA-4 expression (Exp, A = DAC treatment) [6]
further increased: low basal expression of TFF1, TFF3, inhibin α after DAC ([9]; DAC, in many instances)
activated: activation of each downstream gene (TFF1, TFF2, TFF3, inhibin α, Dab2) ([9]; DAC, virtually every cell line in which the gene lacked basal expression)
readily activated: TFF2 activation by DAC ([4]; HCT116, TFF2 promoter present)
++: TFF1 expression (Exp, A = DAC treatment) [3] | TFF1 expression (Exp, A = DAC treatment) [5] | GATA-5 expression (Exp, A = DAC treatment) [6] | Inhibin α expression (Exp, A = DAC treatment) [6] | TFF1 expression (Exp, A = DAC treatment) [6] | TFF3 expression (Exp, A = DAC treatment) [6] | Inhibin α expression (Exp, A = DAC treatment) [7] | Inhibin α expression (Exp, A = DAC treatment) [8, 12]
